Reference: EP0189596A1, “Benzofuran and benzothiophene derivatives” (SHIONOGI & CO., LTD., priority 1984, dated 1986)

Experiments:
[1] = Bioassay for Diuretic Effect on Mice; type: in vivo, Slc:ddy mice; details: Mouse, oral, Dose (mg) 30, urine collected for 4 hours, percentage to control (100%)
Description: (§1) I . Test Method: • Experiments with rats and mice were carried out according to Assay Programs #27-104 and #27-106, respectively. The outline is as follows.
Slc:ddy 5-week-old mice (female, about 20g body-weight each) were used for the test. From the morning of the day before the test day, the mice were fasted but water. In the morning of the test day, a sample which was prepared by suspending or dissolving a test compound in 2% gum arabic was orally administered to each at 30 ml/kg. On the other hand, mere by 2% gum arabic was orally administered to the control group at 30 ml/kg. Immediately after the administration, 5 mice employed were put in a plastic cage for the metabolic tests and their urine samples were collected for 4 hours. The cumulative urine volume, urinary sodium (Na^+), and urinary potassium (K^+) were quantitatively determined. II. Test Results
(§2) Results regarding the urine volume are shown by percentages to control (100%). Also, results regarding the urinary sodium (Na^+) and the urinary potassium (K^+) are shown by percentages to control (100%).

[2] = Bioassay for Diuretic Effect on Rats; type: in vivo, SLc:SD rats; details: Rat, oral, percentage to control (100%)
Description: as §1
SLc:SD 8-week-old rats (male, about 250g body-weight each) were used for the test. A few lumps of sugar in place of ordinary diets were given on the morning of the day before the test day and 5% glucose solution was given orally at a rate of 20 ml/kg in the evening (approximately at 4 p.m.) of the […]. In the morning for the test, a sample which was prepared by suspending or dissolving a test compound in 2X gum arabic was orally administered to each at a dose of 20 ml/kg. On the other hand, mere by 2% gum arabic was orally administered to the control group at 20 ml/kg. Immediately after the administration, the test animals were put in a plastic cage for the metabolic tests and their urine samples were collected for 5 hours. The cumulative urine volume, urinary sodium (Na^+), and urinary potassium (K^+) were quantitatively determined.
as §2

[3] = Dose (mg) 50, urine collected for 5 hours
[4] = Dose (mg) 10, urine collected for 5 hours

Row | Structure (SMILES) | Urinary K^+ (%) [1] | Urinary Na^+ (%) [1] | Urine Vol. (%) [1] | Urinary K^+ (%) [2, 3] | Urinary Na^+ (%) [2, 3] | Urine Vol. (%) [2, 3] | Urinary K^+ (%) [2, 4] | Urinary Na^+ (%) [2, 4] | Urine Vol. (%) [2, 4]
1 | CSC(SC)=C(C)C(=O)c1cc2c(c(C)c1Cl)OC(C(=O)O)C2 (stereo not drawn) [Example 14] | 330※ % | 743※ % | 296※ % | – | – | – | – | – | –
2 | CSC(=CC(=O)c1cc2c(c(Cl)c1Cl)OC(C=O)C2)SC (stereo not drawn) [Example 28] | 260^※ % | 905^※ % | 222^※ % | – | – | – | – | – | –
3 | CC(C(=O)c1cc2c(c(Cl)c1Cl)OC(C(=O)O)C2)=C1OCCS1 (stereo not drawn) [Example 21] | 273※ % | 704※ % | 155※ % | 178※ % | 179※ % | 104% | – | – | –
4 | C=C1CNC(=CC(=O)c2cc3c(c(Cl)c2Cl)OC(C(=O)O)C3)S1 (stereo not drawn) [Example 80] | 344^※ % | 738^※ % | 264^※ % | – | – | – | 161^※ % | 211^※ % | 101%
5 | CSC(=CC(=O)c1cc2c(c(Cl)c1Cl)OC(C(=O)OCC(=O)O)C2)SC (stereo not drawn) [Example 17, 6.7-Dichloro-5-[3,3-bis(metbylthic)-2-propenoyl]-2,3-dibydro-1-benzofuran-2-carboxyacetic acid] | 277※ % | 970※ % | 216※ % | 285※ % | 478※ % | 144※ % | – | – | –
6 | CC(C(=O)c1cc2c(c(Cl)c1Cl)OC(C(=O)O)C2)=C1SCCS1 (stereo not drawn) [Example 3] | 304※ % | 1370※ % | 270※ % | 217※ % | 291※ % | 153※ % | – | – | –
7 | CNC(=S)CC(=O)c1cc2c(c(Cl)c1Cl)OC(C(=O)O)C2 (stereo not drawn) [Example 67, 6,7-dichloro-5-[[N-methyl(thiocarbamoyl)]-acbtyl]-2,3-dihydrobenzofuran-2-carbaxylic acid] | 232^※ % | 610^※ % | 192^※ % | 306^※ % | 377^※ % | 148^※ % | – | – | –
8 | CSc1[nH]ccc1C(=O)c1cc2c(c(Cl)c1Cl)OC(C(=O)O)C2 (stereo not drawn) [Example 98, 6,7-dichloro-5-[2-(methylthio)pyrrol-3-yl-carbonyl]-2,3-dihydrobenzofuran-2-carboxylic acid] | 292^※ % | 810^※ % | 222^※ % | – | – | – | 254^※ % | 445^※ % | 157^※ %
9 | O=C(C=C1NC=CS1)c1cc2c(c(Cl)c1Cl)OC(C(=O)O)C2 (stereo not drawn) [Example 70, 6,7-dichloro-5-((4-thiazolin-2-ylidene)acetyl]-2,3-dihydro-benzofuran-2-carboxylic acid] | 178^※ % | 410^※ % | 144^※ % | 374^※ % | 459^※ % | 154^※ % | – | – | –
